Experimental data taken from the supplement of paper PMC10307832.

Columns and labels:
Assay in all cases: relative viability (nuclei count vs DMSO), 5 days (fraction); higher = more cells survive
AZ3146 + OSI-027 = compound: CN1CCC(CC1)OC2=CC(=C(C=C2)NC3=NC=C4C(=N3)N(C(=O)N4C)C5CCCC5)OC [AZ3146] + COc1cccc2cc(-c3nc([C@H]4CC[C@H](C(=O)O)CC4)n4ncnc(N)c34)[nH]c12 [OSI-027] (partner 0.5 µM)
Method in brief: (§1)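 Each reported value is a median over duplicate plates. It expresses relative viability: treated-well nuclei count divided by vehicle-well nuclei count. Lung cancer cell lines in 1536-well plates were dosed by pin tool a day after seeding, alone with one drug or with a fixed anchor-drug dose plus five library-drug doses (not always all listed) in √10 steps, and nuclei were counted after 5 days.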

GSK-J4 + Foretinib = compound: CCOC(=O)CCNc1cc(N2CCc3ccccc3CC2)nc(-c2ccccn2)n1 [GSK-J4] + COc1cc2c(Oc3ccc(NC(=O)C4(C(=O)Nc5ccc(F)cc5)CC4)cc3F)ccnc2cc1OCCCN1CCOCC1 [Foretinib] (partner 0.25 µM)
Method in brief: as §1

AZ3146 + AZD7762 = compound: CN1CCC(CC1)OC2=CC(=C(C=C2)NC3=NC=C4C(=N3)N(C(=O)N4C)C5CCCC5)OC [AZ3146] + NC(=O)Nc1cc(-c2cccc(F)c2)sc1C(=O)N[C@H]1CCCNC1 [AZD7762] (partner 0.2 µM)
Method in brief: as §1

GSK-J4 + Lapatinib = compound: CCOC(=O)CCNc1cc(N2CCc3ccccc3CC2)nc(-c2ccccn2)n1 [GSK-J4] + CS(=O)(=O)CCNCc1ccc(-c2ccc3ncnc(Nc4ccc(OCc5cccc(F)c5)c(Cl)c4)c3c2)o1 [Lapatinib] (partner 2 µM)
Method in brief: as §1

Cell Line	relative viability (AZ3146 + OSI-027; first compound 0.08 µM)	relative viability (AZ3146 + OSI-027; first compound 0.253 µM)	relative viability (AZ3146 + OSI-027; first compound 0.8 µM)	relative viability (AZ3146 + OSI-027; first compound 2.53 µM)	relative viability (AZ3146 + OSI-027; first compound 8 µM)	relative viability (GSK-J4 + Foretinib; first compound 0.5 µM)	relative viability (GSK-J4 + Foretinib; first compound 1.581 µM)	relative viability (GSK-J4 + Foretinib; first compound 5 µM)	relative viability (GSK-J4 + Foretinib; first compound 15.81 µM)	relative viability (GSK-J4 + Foretinib; first compound 50 µM)	relative viability (AZ3146 + AZD7762; first compound 0.08 µM)	relative viability (AZ3146 + AZD7762; first compound 0.253 µM)	relative viability (AZ3146 + AZD7762; first compound 0.8 µM)	relative viability (AZ3146 + AZD7762; first compound 2.53 µM)	relative viability (AZ3146 + AZD7762; first compound 8 µM)	relative viability (GSK-J4 + Lapatinib; first compound 0.5 µM)	relative viability (GSK-J4 + Lapatinib; first compound 1.581 µM)	relative viability (GSK-J4 + Lapatinib; first compound 5 µM)	relative viability (GSK-J4 + Lapatinib; first compound 15.81 µM)	relative viability (GSK-J4 + Lapatinib; first compound 50 µM)
H3255	0.654	0.483	0.594	0.612	0.638	0.856	0.85	0.846	0.844	0.804	0.863	0.837	0.768	0.825	0.841	0.238	0.255	0.271	0.206	0.493
HARA	0.31	0.41	0.436	0.582	0.506	0.863			0.805	0.751	0.189	0.416	0.344	0.21	0.169	0.729	0.706		0.699	0.554
HCC-15	0.689	0.667	0.481	0.773	0.578	0.949		0.898	0.854	0.69	1.27	1.1	1.33	1.1	1.16	0.827	0.436	0.724	0.754	0.644
HCC-78	0.3	0.381	0.322	0.357	0.365	0.571	0.508	0.675	0.589	0.631		0.577	0.57	0.53	0.717	0.707	0.684	0.846		0.738
HCC-366	0.781	0.85	0.863	0.865	0.884	0.955	0.881		0.915	0.874	0.212	0.288	0.263	0.203	0.112	0.969	0.786		0.937	0.602
HCC-827	0.84	0.763	0.807	0.786	0.726	1.02	1.07	1.05	0.955	0.847	0.154	0.17	0.188	0.212	0.213	0.197	0.229	0.207	0.212	0.16
HOP-62	0.755	0.796	0.742	0.857	0.866	1	0.882	1.02	1.03	0.766	0.276	0.61	0.485	0.582	0.791	0.701	0.689	0.846	1.02	0.86
LC-2-ad	0.694	0.781	0.801	0.92	0.819	0.909	0.763	0.868	0.781	0.775	0.75	0.841	0.822	0.886	0.78	1.04	0.743	0.809	0.904	0.664
LCLC-97TM1	0.501	0.585	0.364	0.415	0.396	0.972	0.953	0.909	0.856	0.561	0.311	0.339	0.262	0.381	0.273			1.33	0.722	0.885
LK-2	0.227	0.181	0.146	0.206	0.178	1.26		1.31	0.794	0.805			0.372	0.347	0.286	1.04	0.905	1.12	0.646	0.885
LOU-NH91	0.726	0.61	0.7	0.702	0.745	0.963	0.925	0.789	0.893	0.918	0.778	0.755	0.802	0.775	0.743	0.688	0.754	0.626	0.625	0.64
LU99A	0.28	0.306	0.309	0.317	0.228	0.731	0.78		0.809	0.523		0.378	0.295	0.276	0.264	0.992	0.79	0.842	0.921	0.607
LXF-289	0.775	0.704	0.77	0.781	0.77	0.974	0.93	1.01	0.929	0.924	1.02	1.16	1.05	1.1	1.05	0.899	0.821	0.907	0.934	0.866
NCI-H23	0.621	0.699	0.403	0.746	0.616	0.999	0.885	0.942	0.802	0.847	0.157	0.3	0.27	0.216	0.163	0.994		0.772	0.778	0.674
NCI-H322M	0.51	0.581	0.509	0.601	0.48	1.01	0.884	1.27	0.815	0.712	0.595	0.529	0.581	0.825	0.506	0.533	0.623	0.842	0.514	0.528
NCI-H358	0.762	0.753	0.661	0.82	0.431	0.677	0.684	0.639	0.616	0.631	0.346	0.469	0.363	0.581	0.313	0.452	0.414	0.434	0.456	0.367
NCI-H460	0.636	0.72	0.622	0.622	0.423	0.977	0.81	0.732	1	0.871	0.461	0.744	0.522	0.546	0.559	1.05	0.924	0.809	0.955	0.364

Cell Line	relative viability (AZ3146 + OSI-027; first compound 0.08 µM)	relative viability (AZ3146 + OSI-027; first compound 0.253 µM)	relative viability (AZ3146 + OSI-027; first compound 0.8 µM)	relative viability (AZ3146 + OSI-027; first compound 2.53 µM)	relative viability (AZ3146 + OSI-027; first compound 8 µM)	relative viability (GSK-J4 + Foretinib; first compound 0.5 µM)	relative viability (GSK-J4 + Foretinib; first compound 1.581 µM)	relative viability (GSK-J4 + Foretinib; first compound 5 µM)	relative viability (GSK-J4 + Foretinib; first compound 15.81 µM)	relative viability (GSK-J4 + Foretinib; first compound 50 µM)	relative viability (AZ3146 + AZD7762; first compound 0.08 µM)	relative viability (AZ3146 + AZD7762; first compound 0.253 µM)	relative viability (AZ3146 + AZD7762; first compound 0.8 µM)	relative viability (AZ3146 + AZD7762; first compound 2.53 µM)	relative viability (AZ3146 + AZD7762; first compound 8 µM)	relative viability (GSK-J4 + Lapatinib; first compound 0.5 µM)	relative viability (GSK-J4 + Lapatinib; first compound 1.581 µM)	relative viability (GSK-J4 + Lapatinib; first compound 5 µM)	relative viability (GSK-J4 + Lapatinib; first compound 15.81 µM)	relative viability (GSK-J4 + Lapatinib; first compound 50 µM)
NCI-H596	0.683	0.698	0.669	0.762	0.563	0.928	0.657	0.892	0.673	0.823	1.11	1.21	1.15	0.986	1.13	1.01	1.02	1	0.866	0.916
NCI-H647	0.55	0.656	0.567	0.684	0.697	1.1	0.855	1.07	1.2	1.09	0.272	0.541	0.486	0.342	0.326	1.01	0.954	0.94	0.977	0.815
NCI-H650	0.504	0.461	0.359	0.588	0.506	0.972	1.01	0.686	0.941	0.712	0.915	0.652	0.952	1.06	1.21	0.841	0.579	0.614	0.783	0.614
NCI-H727	0.674	0.56	0.595	0.671	0.413	0.808	0.835	1.03	0.99	0.518	0.642	0.575	0.562	0.568	0.57	0.827		0.996	0.795	0.5
NCI-H838	0.38	0.432	0.341	0.325	0.373	1.03	1.02		0.853	0.738	0.931	0.921	0.844	0.963	0.698	1.25	0.748		0.938	0.858
NCI-H1355	0.396	0.395	0.324	0.441	0.345	0.878	0.837	1.08	0.839	0.859	0.621	0.738	0.676	0.672	0.551	0.946	0.875	0.944	0.916	0.919
NCI-H1395	0.569	0.533	0.564	0.701	0.633	0.937	0.983	0.865	0.973	0.946	0.352	0.389		0.379	0.4	1.22	0.955	0.759	0.883	0.648
NCI-H1437	0.813	0.876	0.821	0.875	0.995	1.29	0.715	1.23	1.24	0.766	0.887	1.2	1.09	1.14	1.1	0.851	0.693	0.713	0.727	0.17
NCI-H1651	0.657	0.745	0.66	0.692	0.639	0.765	0.905	0.922	0.663	0.8	0.277	0.382	0.351	0.398	0.385	0.84	0.779	0.814	0.863	0.839
NCI-H1666	0.866	0.881	0.922	0.806	0.839	0.998	0.742	1.08	0.907	0.749	0.819	0.806	0.808	0.74	0.887	0.576		0.7	0.567	0.382
NCI-H1734	0.592	0.554	0.641	0.591	0.553	0.821	0.787	0.849	0.707	0.619	0.262	0.535	0.545	0.563	0.337	0.977	0.802	0.74	0.893	0.725
NCI-H1755	0.589	0.737	0.575	0.72	0.802	0.906	0.817	0.861	0.878	0.837	0.502	0.482	0.455	0.445	0.519	0.96	0.905	0.673	0.923	0.917
NCI-H1793	0.321	0.256	0.226	0.329	0.247	0.801	0.575	0.737	0.423	0.514	0.259	0.397	0.259	0.229	0.178	0.71	0.557	0.621	0.404	0.234
NCI-H1915	0.519	0.637	0.663	0.625	0.628	1.04	1.03		1.06	0.523	0.673	0.714	0.75	0.729	0.745	0.963	0.802	0.83	0.941	0.961
NCI-H1944	0.382	0.359	0.446	0.464	0.374	0.934	0.872	1.01	0.747	0.759	0.311	0.509	0.482	0.516	0.469	0.8	0.795	0.78	0.665	0.787
NCI-H1975	0.677	0.747	0.785	0.71	0.416	0.947	0.785	0.732	0.95	1.04	0.628		0.752	0.778	0.638	0.873	0.971		0.929	1.19
